The values below come from patent publication US20070249562A1, “TREATMENT OF ATRIAL FIBRILLATION” (priority 2006, published 2007).

The subject of series [1] is ATP induced calcium ion influx into cells (P2X purinoceptors). Conditions: a recent evaluation; suggested due to inhibition of P2X purinoceptors; cited from earlier work.
For series [2] the following is noted: in water, alcohol, and ether; cited from earlier work.
The test system of series [3] is Atrial Fibrillation. Description: Randomized, double-blind placebo-controlled study in high-risk CABG patients; atrial fibrillation by 12-lead ECG. It is filed as in vivo, human. The settings on record: for Reduction of AF compared to placebo: from POD 4 to POD 90. From the text:
A randomized, double-blind placebo-controlled, dose-ranging, parallel-arm multi-center study was undertaken, on high-risk patients undergoing CABG surgery with cardiopulmonary bypass. Patients were identified as “high risk” if they had two or more of the following risk factors: • Age greater than 65 years • Current smoker • History of diabetes mellitus requiring treatment other than diet • Evidence of left ventricular dysfunction or congestive heart failure • History of a previous non-disabling stroke, transient ischemic attack, or carotid endarterectomy • Urgent CABG intervention defined as the need to stay in the hospital (although the patient may be operated on within a normal scheduling routine). • History of myocardial infarction that occurred more than 48 hours but less than 6 weeks prior to CABG surgery • Prior peripheral artery surgery or angioplasty • Moderate renal dysfunction defined as […] >133 μmol/L (1.5 mg/dl), but <250 μmol/L (2.8 mg/dl) • Presence of at least one asymptomatic carotid artery stenosis (>50% ) either in one or two carotid arteries. Approximately 900 high risk pre-CABG patients in 42 different treatment centers in North America were screened and randomized to three groups of approximately 300 patients each, prior to their bypass surgery, as follows. Patients were either placed in a control group (placebo), treated with 250 mg/day of pyridoxal-5′-phosphate, (250 mg/day), or treated with 750 mg day of pyridoxal-5′-phosphate (750 mg/day). The first dose of study medication was administered at 3-10 hours prior to CABG surgery. In the event of surgery delay or rescheduling, a second pre-operative dose of pyridoxal-5′-phosphate was administered so that all patients received study medication 3-10 hours before surgery. Treatment continued for 30 days after surgery (post operative day (POD) 30). Patients received follow-up evaluations up to and including postoperative day (POD) 4, on POD 30 and on POD 90. 12-lead ECG were taken at baseline (Pre-Op), POD 2, POD 4, POD 30 and POD 90 with patients on placebo, 250 mg/day pyridoxal-5′-phosphate (P5P), and 750 mg/day pyridoxal-5′-phosphate. The data from baseline, POD 4 and POD 90 were analyzed.

SMILES strings stand for the structures.

With `Cc1ncc(COP(=O)(O)O)c(C=O)c1O` [pyridoxal-5′-phosphate, 3-hydroxy-2-methyl-5-[(phosphonooxy)methyl]-4-pyridine-carboxaldehyde], the “Effect on ATP induced calcium ion influx into cells” value in series [1] is given as “inhibits”. Moreover, the Solubility entry in series [2] is given as “essentially insoluble”. For the same compound, the “Reduction of AF compared to placebo” value in series [3] (250 mg dose, p=0.0084) was 51.75%. Also, the “Reduction of AF compared to placebo” value in series [3] (750 mg dose, p=0.013) stood at 49.08%. In series [3] (250 mg/day P5P (n = 301)), the “Number of patients who had AF at POD 4” value came to 56, the “Percent of patients who had AF at POD 4” value stood at 18.60%, the “Number of patient who had AF at POD 90” value is reported as 17 and the “Percent of patient who had AF at POD 90” value stood at 5.65%. Besides, in series [3] (750 mg/day P5P (n = 302)), the “Number of patients who had AF at POD 4” value turned out to be 63, the “Percent of patients who had AF at POD 4” value is 20.86%, the “Number of patient who had AF at POD 90” value was found to be 18 and the “Percent of patient who had AF at POD 90” value is listed as 5.96%.
